For three compounds, inhibition results are on record in PubChem BioAssay AID588613 (The Scripps Research Institute Molecular Screening Center, 2011).

Broadly, the inhibition is the relative decrease from the control value, in per cent.

Activity calls are given as the source filed them.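 How the source made its calls: active means phosphorylated EGFR protein level at least 30% below or above the solvent-only control; inactive means the rest.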

Epidermal growth factor receptor (Homo sapiens), sequence (P00533 whole entry, looked up): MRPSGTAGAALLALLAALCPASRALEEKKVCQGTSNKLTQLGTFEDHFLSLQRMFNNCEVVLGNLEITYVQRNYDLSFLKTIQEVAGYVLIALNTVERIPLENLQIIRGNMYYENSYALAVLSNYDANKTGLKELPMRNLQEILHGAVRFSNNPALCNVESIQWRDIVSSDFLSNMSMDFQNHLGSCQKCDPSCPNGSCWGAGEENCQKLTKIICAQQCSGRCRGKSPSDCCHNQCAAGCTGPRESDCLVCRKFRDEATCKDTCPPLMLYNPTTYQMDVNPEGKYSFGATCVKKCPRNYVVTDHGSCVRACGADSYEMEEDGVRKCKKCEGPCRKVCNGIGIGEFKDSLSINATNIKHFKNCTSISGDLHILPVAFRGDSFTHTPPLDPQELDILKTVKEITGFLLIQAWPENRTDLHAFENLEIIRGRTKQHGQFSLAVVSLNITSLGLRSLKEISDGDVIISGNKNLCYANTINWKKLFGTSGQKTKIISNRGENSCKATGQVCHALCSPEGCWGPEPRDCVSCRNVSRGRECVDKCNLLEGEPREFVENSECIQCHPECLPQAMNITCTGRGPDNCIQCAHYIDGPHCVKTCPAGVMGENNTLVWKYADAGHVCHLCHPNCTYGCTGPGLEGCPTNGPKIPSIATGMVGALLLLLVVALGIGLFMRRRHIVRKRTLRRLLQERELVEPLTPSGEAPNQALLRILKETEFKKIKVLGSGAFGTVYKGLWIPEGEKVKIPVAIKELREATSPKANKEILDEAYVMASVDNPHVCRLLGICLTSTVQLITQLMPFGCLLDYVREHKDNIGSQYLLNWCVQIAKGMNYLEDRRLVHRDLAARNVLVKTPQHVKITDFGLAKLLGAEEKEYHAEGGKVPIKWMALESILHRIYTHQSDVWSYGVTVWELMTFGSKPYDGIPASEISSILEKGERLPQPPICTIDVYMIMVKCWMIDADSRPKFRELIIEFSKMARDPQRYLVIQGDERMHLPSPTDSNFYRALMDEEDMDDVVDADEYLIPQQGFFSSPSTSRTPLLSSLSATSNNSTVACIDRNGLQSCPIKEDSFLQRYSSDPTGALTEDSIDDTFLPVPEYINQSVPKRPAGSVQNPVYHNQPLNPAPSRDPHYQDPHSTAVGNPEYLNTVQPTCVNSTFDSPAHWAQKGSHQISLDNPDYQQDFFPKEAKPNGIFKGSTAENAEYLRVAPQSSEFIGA

The assay has as its target Epidermal growth factor receptor (Homo sapiens) (UniProt P00533). In words: change in phospho-EGFR levels, up or down, late-stage follow-up, counter-screen for KLF5 inhibitor project, DLD1 cells, chemiluminescent western blot, powder samples (AID 588613). The following applies: DLD-1 cells, 24 h, at 10 µM, active compounds read high. A general note: The purpose of a counterscreen is to sort out artefacts and off-target activity.
For `CN(C(=O)CNC(=O)/C=C/c1cccc(Cl)c1)C1CCS(=O)(=O)CC1`, the inhibition was 46.8%.

On to `CN(C(=O)CNC(=O)/C=C/c1cccc(Cl)c1)C1CCS(=O)(=O)C1` (stereo not drawn), for which the inhibition is 60.7%.

With `CN(C(=O)COC(=O)/C=C/c1cccc([N+](=O)[O-])c1)C1CCS(=O)(=O)C1` (stereo not drawn), the inhibition is 28.2% (inactive).
